Reference: US6756408B2, “Methods and materials for protecting against myocardial cell damage related to coronary intervention by regional beta blocker therapy” (Board of Regents, The University of Texas System, priority 2001, dated 2004)

System: patients with coronary artery disease undergoing PCI
Assay: Randomized, double-blind, placebo-controlled trial of intracoronary propranolol before percutaneous coronary intervention
Format: in vivo
Method: Study population: This study was a randomized, double-blind, placebo-controlled trial. Patients with coronary artery disease undergoing PCI were considered for inclusion. Patients on chronic beta blockers were included. Exclusion criteria included myocardial infarction (“MI”) within 24 h or recent MI with elevation of CK or CKMB at time of randomization (a normal CK and CKMB and elevated troponin T allowed inclusion); cardiogenic shock; systolic blood pressure<100 mm Hg; heart rate<50/min; NYHA class III or IV heart failure; severe left ventricular dysfunction (ejection fraction<30%); severe renal insufficiency (creatinine>3.0 mg/dl); allergy to propranolol; or second planned intervention within 30 days. Patients with chronic obstructive pulmonary disease (“COPD”) were not specifically excluded.
Study protocol: Before initiation of PCI, all patients were pretreated with aspirin and received weight-adjusted heparin, with a target activated clotting time of >300 seconds in the absence of a glycoprotein IIb/IIIa (“GP IIb/IIIa”) inhibitor and 200-300 seconds with a GP IIb/IIIa inhibitor, which was allowed but not mandated.
Patients were randomized in a 1:1 ratio to receive either placebo or propranolol. The randomization allocation code was generated using complete block design. Randomization was performed after coronary angiography confirmed the need for PCI. In patients with a total occlusion, the lesion was crossed with a guide wire before randomization.
Study drug kits were packaged by hospital pharmacy to be indistinguishable from each other with a concentration of 1 mg/ml; the identity of the injectate (i.e., propranolol or placebo) was not known to the investigators or to the patients. […] The study drug was thus delivered directly into the myocardial region supplied by the stenotic coronary artery undergoing PCI. Balloon inflation was performed after the IC injection of propranolol or placebo. Blood samples were taken prior to PCI, immediately after PCI, and every 8 h for 24 h to assay CK and CKMB. Blood samples were taken at 16 h for troponin T analysis. Additional blood levels were obtained when any patient experienced possible ischemic symptoms. The 30-day contact was made by clinic visit or telephone interview.
Study endpoints: The primary endpoint was the incidence of post-procedural elevation of CKMB above the upper limit of normal (“ULN”). The “threshold” for the development of an excess in adverse events relative to the level of CKMB appears to be a continuous function beginning with any elevation of CKMB or troponin T with the frequency of long-term adverse events, particular death, increasing with the level of enzyme rise (Simoons, which is hereby incorporated by reference). Secondary endpoints included (1) incidence of post-procedure total CK elevation, (2) incidence of troponin T elevation (in those patients with normal baseline values), (3) median peak values of CK, CKMB, and troponin T, (4) rescue therapy with GP IIb/IIIa inhibitors, and (5) combination of death from any cause, myocardial necrosis, recurrent MI within 30 days, or severe myocardial ischemia requiring urgent coronary-artery bypass surgery or target lesion revascularisation (“TLR”) within 30 days of intervention (“MACE”).
Urgent target lesion revascularisation included any coronary artery bypass graft surgery or a second PCI on the original target lesion performed for recurrent myocardial ischemia. Successful PCI was defined as post-procedure residual stenosis at the target lesion<30% of reference vessel diameter without major adverse outcome (death, Q wave MI, emergent CABG). Major bleeding was defined as bleeding requiring transfusion, surgery, prolongation of hospital stay, or >8% drop in hematocrit after PCI. Rescue GP IIb/IIIa use was defined as drug given after the guide wire passage during PCI.

[1] = patients with mechanical complications, n = 17
[2] = patients with no mechanical complication, n = 58

In the case of `CC(C)NCC(O)COc1cccc2ccccc12` (stereo not shown) [Propranolol, propranolol], the “Change in heart rate or blood pressure after IC injection” value (15 μg/kg intracoronary) is reported as “no change”, the “Incidence of elevation of CKMB (>5 ng/ml) after PCI” value (0.015 mg/kg) is reported as 17% and the “Incidence of elevation of Troponin T (>0.10 ng/ml) after PCI” value (0.015 mg/kg, 16 h) is reported as 13%. For the same compound, the Death (30 days after PCI, n = 75) was 0%, the “Recurrent MI” value (30 days after PCI, n = 75) was 1% and the “Urgent/emergent TLR” value (30 days after PCI, n = 75) was 0%. The Significant bleeding (after PCI) was 3%, the “Combined 30d MACE” value (death, myocardial necrosis, recurrent MI, urgent TLR within 30 days, n = 75) was 18% and the “"Rescue" GP IIb/IIIa inhibitors use required” value (drug given after guide wire passage during PCI) was 11%. The “Adverse systemic effects after IC injection” value (including respiratory difficulties in 5 patients with history of COPD or asthma) was “no adverse systemic effects”, the “Heart rate, post drug” value (largest change after drug administration, baseline 67 ± 11) was 66 ± 11 beats/min and the “Systolic BP, post drug” value (largest change after drug administration, baseline 139 ± 25) was 137 ± 23 mmHg. The “CKMB elevation ≧3 times upper limit of normal” value (number of patients out of 75) was 7 patients, the “Elevation of CK (% of patients)” value [1] was 18% and the “Elevation of CKMB (% of patients)” value [1] was 41%. For the same compound, the “Elevation of troponin T (% of patients)” value [1] was 35%, the “Elevation of CK (% of patients)” value [2] was 0% and the “Elevation of CKMB (% of patients)” value [2] was 10%. The “Elevation of troponin T (% of patients)” value [2] was 5%, the “Median value of CKMB” value (post PCI, all patients) was 2.1 and the “Median value of total CK” value (post PCI, all patients) was 67. For the same compound, the “Median value of troponin T” value (post PCI, all patients) was 0.03, the “Favorable effect on preventing myocardial necrosis, subgroup analysis” value (relative risk by subgroups, FIG. 3) was “broadly applicable” and the “Recurrent MI (number of patients)” value (within 30 days) was 1 patients. For the same compound, the “Urgent TLR required (number of patients)” value (within 30 days) was 0 patients.
